{"source": "patent US10238670B2", "about": "“9-aminomethyl minocycline compounds and methods of use thereof in urinary tract infection (UTI) treatment” (Paratek Pharmaceuticals, Inc., priority 2016, dated 2019)", "assay_in_all_cases": "In vitro MIC, 2010 surveillance isolates", "key": {"[1]": {"test_system": "Acinetobacter spp", "assay_type": "cell-based"}, "[2]": {"test_system": "MSSA", "assay_type": "cell-based"}, "[3]": {"test_system": "MRSA", "assay_type": "cell-based"}, "[4]": {"test_system": "MS CoNS", "assay_type": "cell-based, Coagulase-Negative Staphylococcus", "settings": "for % R (resistance): Eucast breakpoints"}, "[5]": {"test_system": "MR CoNS", "assay_type": "cell-based, Coagulase-Negative Staphylococcus", "settings": "for % R (resistance): Eucast breakpoints"}, "[6]": {"test_system": "E. faecalis VS", "assay_type": "cell-based"}, "[7]": {"test_system": "E. faecalis VNS", "assay_type": "cell-based"}, "[8]": {"test_system": "E. faecium VS", "assay_type": "cell-based"}, "[9]": {"test_system": "E. faecium VNS", "assay_type": "cell-based"}}}
{"smiles": "CN(C)c1cc(NC(=O)CNC(C)(C)C)c(O)c2c1C[C@H]1C[C@H]3[C@H](N(C)C)C(O)=C(C(N)=O)C(=O)[C@@]3(O)C(O)=C1C2=O", "note": "[Tigecycline]", "values": [{"measurement": "MIC90", "setting": "[1]; Europe, N=43", "result": 2, "unit": "µg/mL"}, {"measurement": "range of MICs (N <10, shown instead of MIC90)", "setting": "[1]; L. Amer, N=9", "result": "≤0.03-2"}, {"measurement": "MIC90", "setting": "[1]; N America, N=42", "result": 0.5, "unit": "µg/mL"}, {"measurement": "% R (resistance)", "setting": "[2]; Asia/Pac, Eucast breakpoints", "result": 0, "unit": "%"}, {"measurement": "MIC90", "setting": "[2]; Asia/Pac, N=641", "result": 0.25, "unit": "µg/mL"}, {"measurement": "% R (resistance)", "setting": "[2]; Europe, Eucast breakpoints", "result": 0, "unit": "%"}, {"measurement": "MIC90", "setting": "[2]; Europe, N=2109", "result": 0.25, "unit": "µg/mL"}, {"measurement": "% R (resistance)", "setting": "[2]; L. Amer, CLSI breakpoints", "result": 0, "unit": "%"}, {"measurement": "MIC90", "setting": "[2]; L. Amer, N=590", "result": 0.25, "unit": "µg/mL"}, {"measurement": "% R (resistance)", "setting": "[2]; N America, CLSI breakpoints", "result": 0, "unit": "%"}, {"measurement": "MIC90", "setting": "[2]; N America, N=2373", "result": 0.25, "unit": "µg/mL"}, {"measurement": "% R (resistance)", "setting": "[3]; Asia/Pac, Eucast breakpoints", "result": 0, "unit": "%"}, {"measurement": "MIC90", "setting": "[3]; Asia/Pac, N=428", "result": 0.25, "unit": "µg/mL"}, {"measurement": "% R (resistance)", "setting": "[3]; Europe, Eucast breakpoints", "result": 0, "unit": "%"}, {"measurement": "MIC90", "setting": "[3]; Europe, N=750", "result": 0.25, "unit": "µg/mL"}, {"measurement": "% R (resistance)", "setting": "[3]; L. Amer, CLSI breakpoints", "result": 0, "unit": "%"}, {"measurement": "MIC90", "setting": "[3]; L. Amer, N=506", "result": 0.25, "unit": "µg/mL"}, {"measurement": "% R (resistance)", "setting": "[3]; N America, CLSI breakpoints", "result": 0, "unit": "%"}, {"measurement": "MIC90", "setting": "[3]; N America, N=2508", "result": 0.25, "unit": "µg/mL"}, {"measurement": "% R (resistance)", "setting": "[4]; Asia/Pac", "result": 0, "unit": "%"}, {"measurement": "MIC90", "setting": "[4]; Asia/Pac, N=18", "result": 0.25, "unit": "µg/mL"}, {"measurement": "% R (resistance)", "setting": "[4]; Europe", "result": 0, "unit": "%"}, {"measurement": "MIC90", "setting": "[4]; Europe, N=185", "result": 0.25, "unit": "µg/mL"}, {"measurement": "MIC90", "setting": "[4]; L. Amer, N=67", "result": 0.25, "unit": "µg/mL"}, {"measurement": "MIC90", "setting": "[4]; N America, N=191", "result": 0.25, "unit": "µg/mL"}, {"measurement": "% R (resistance)", "setting": "[5]; Asia/Pac", "result": 0, "unit": "%"}, {"measurement": "MIC90", "setting": "[5]; Asia/Pac, N=77", "result": 0.25, "unit": "µg/mL"}, {"measurement": "% R (resistance)", "setting": "[5]; Europe", "result": 0, "unit": "%"}, {"measurement": "MIC90", "setting": "[5]; Europe, N=510", "result": 0.25, "unit": "µg/mL"}, {"measurement": "MIC90", "setting": "[5]; L. Amer, N=301", "result": 0.25, "unit": "µg/mL"}, {"measurement": "MIC90", "setting": "[5]; N America, N=461", "result": 0.25, "unit": "µg/mL"}, {"measurement": "% R (resistance)", "setting": "[6]; Asia/Pac, Eucast breakpoints", "result": 0, "unit": "%"}, {"measurement": "MIC90", "setting": "[6]; Asia/Pac, N=214", "result": 0.25, "unit": "µg/mL"}, {"measurement": "% R (resistance)", "setting": "[6]; Europe, Eucast breakpoints", "result": 0, "unit": "%"}, {"measurement": "MIC90", "setting": "[6]; Europe, N=669", "result": 0.25, "unit": "µg/mL"}, {"measurement": "% R (resistance)", "setting": "[6]; L. Amer, CLSI breakpoints", "result": 0, "unit": "%"}, {"measurement": "MIC90", "setting": "[6]; L. Amer, N=290", "result": 0.25, "unit": "µg/mL"}, {"measurement": "% R (resistance)", "setting": "[6]; N America, CLSI breakpoints", "result": 0, "unit": "%"}, {"measurement": "MIC90", "setting": "[6]; N America, N=863", "result": 0.25, "unit": "µg/mL"}, {"measurement": "range of MICs (N <10, shown instead of MIC90)", "setting": "[7]; Asia/Pac, N=1", "result": 0.25}, {"measurement": "% R (resistance)", "setting": "[7]; Europe, Eucast breakpoints", "result": 0, "unit": "%"}, {"measurement": "range of MICs (N <10, shown instead of MIC90)", "setting": "[7]; Europe, N=8", "result": "≤0.03-0.25"}, {"measurement": "% R (resistance)", "setting": "[7]; L. Amer, CLSI breakpoints", "result": 0, "unit": "%"}, {"measurement": "range of MICs (N <10, shown instead of MIC90)", "setting": "[7]; L. Amer, N=7", "result": "≤0.03-0.06"}, {"measurement": "% R (resistance)", "setting": "[7]; N America, CLSI breakpoints", "result": 0, "unit": "%"}, {"measurement": "MIC90", "setting": "[7]; N America, N=38", "result": 0.25, "unit": "µg/mL"}, {"measurement": "% R (resistance)", "setting": "[8]; Asia/Pac, Eucast breakpoints", "result": 0, "unit": "%"}, {"measurement": "MIC90", "setting": "[8]; Asia/Pac, N=106", "result": 0.12, "unit": "µg/mL"}, {"measurement": "% R (resistance)", "setting": "[8]; Europe, Eucast breakpoints", "result": 0, "unit": "%"}, {"measurement": "MIC90", "setting": "[8]; Europe, N=303", "result": 0.12, "unit": "µg/mL"}, {"measurement": "% R (resistance)", "setting": "[8]; L. Amer, CLSI breakpoints", "result": 0, "unit": "%"}, {"measurement": "MIC90", "setting": "[8]; L. Amer, N=51", "result": 0.12, "unit": "µg/mL"}, {"measurement": "% R (resistance)", "setting": "[8]; N America, CLSI breakpoints", "result": 0, "unit": "%"}, {"measurement": "MIC90", "setting": "[8]; N America, N=115", "result": 0.25, "unit": "µg/mL"}, {"measurement": "% R (resistance)", "setting": "[9]; Asia/Pac, Eucast breakpoints", "result": 0, "unit": "%"}, {"measurement": "MIC90", "setting": "[9]; Asia/Pac, N=24", "result": 0.25, "unit": "µg/mL"}, {"measurement": "% R (resistance)", "setting": "[9]; Europe, Eucast breakpoints", "result": 0, "unit": "%"}, {"measurement": "MIC90", "setting": "[9]; Europe, N=71", "result": 0.25, "unit": "µg/mL"}, {"measurement": "% R (resistance)", "setting": "[9]; L. Amer, CLSI breakpoints", "result": 0, "unit": "%"}, {"measurement": "MIC90", "setting": "[9]; L. Amer, N=41", "result": 0.12, "unit": "µg/mL"}, {"measurement": "% R (resistance)", "setting": "[9]; N America, CLSI breakpoints", "result": 0, "unit": "%"}, {"measurement": "MIC90", "setting": "[9]; N America, N=478", "result": 0.25, "unit": "µg/mL"}]}
